The source made the active and inactive calls. The rule behind the calls is not given here.
Tests used:
[1] = test system: Mycobacterium tuberculosis; assay: Binding affinity to N-terminal polyhis-tagged Mycobacterium tuberculosis ICL1 C191S mutant expressed in Escherichia coli BL21 (DE3) assessed as compound-protein covalent adduct formation by measuring molecular mass at 1 mM after 12 hrs in presence of MgCl2 by LC-MS analysis
[2] = Binding affinity to N-terminal polyhis-tagged Mycobacterium tuberculosis ICL1 C191S mutant expressed in Escherichia coli BL21 (DE3) in presence of MgCl2 by NMR binding analysis

With `C=C(CC(=O)O)C(=O)O` [ITACONATE] the Activity [1] was “Active” and the Kd [2] was 155 µM.
